Here are results for 16 compounds from US8173665B2, “I-pheny 1-3,4-dihydropyrimidin-2(1H)-one derivatives and their use” (Bayer Pharma Aktiengesellschaft, priority 2002, dated 2012).

A word on the IC50: it is the midpoint of a concentration-inhibition curve.

For one experiment, the target named is T1, human neutrophil elastase (HNE) (Homo sapiens, UniProt P08246).
T1 construct: purchased SERVA Electrophoresis GmbH, Heidelberg, Germany #20927.01
T1 sequence (P08246 30-267): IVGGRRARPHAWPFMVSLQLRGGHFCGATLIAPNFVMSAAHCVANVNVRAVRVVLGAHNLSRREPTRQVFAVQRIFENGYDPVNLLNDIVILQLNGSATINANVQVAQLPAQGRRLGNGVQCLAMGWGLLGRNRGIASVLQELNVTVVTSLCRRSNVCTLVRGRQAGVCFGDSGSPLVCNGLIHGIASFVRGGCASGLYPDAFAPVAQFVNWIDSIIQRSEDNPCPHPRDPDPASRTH
Kind of experiment: In vitro inhibition of HNE using a fluorogenic peptide substrate (MeOSuc-Ala-Ala-Pro-Val-AMC). The format is biochemical. To be noted: 384 MTP format. Here is the method: I. In Vitro Enzyme Assays of Human Neutrophil Elastase (HNE) assay buffer: 0.1 M HEPES-NaOH buffer pH 7.4, 0.5 M NaCl, 0.1% (w/v) bovine serum albumin; suitable concentration (see below) of HNE (18 U/mg lyophil., #20927.01, SERVA Electrophoresis GmbH, Heidelberg, Germany) in assay buffer; suitable concentration (see below) of substrate in assay buffer; suitable concentration of test compounds diluted with assay buffer from a 10 mM stock solution in DMSO.
In Vitro Inhibition of HNE Using a Fluorogenic Peptide Substrate
Continuous Read-Out Signal, 384 MTP Assay Format
In this protocol, the elastase substrate MeOSuc-Ala-Ala-Pro-Val-AMC (#324740, Calbiochem-Novabiochem Corporation, Merck KGaA, Darmstadt, Germany) is used. The test solution is prepared by mixing 10 μl of test compound dilution, 20 μl of HNE enzyme dilution (final concentration 8-0.4 μU/ml, routinely 2.1 μU/ml) and 20 μl of substrate dilution (final concentration 1 mM-1 μM, routinely 20 μM), respectively. The solution is incubated for 0-2 hrs at 37° C. (routinely one hour). The fluorescence of the liberated AMC due to the enzymatic reaction is measured at 37° C. (TECAN spectra fluor plus plate reader). The rate of increase of the fluorescence (ex. 395 nm, em. 460 nm) is proportional to elastase activity. IC50 values are determined by RFU-versus-[I] plots. Km and Km(app.) values are determined by Lineweaver-Burk plots and converted to Ki values by Dixon plots.
`CC(=O)C1=C(C)N(c2cccc(C(F)(F)F)c2)C(=S)NC1c1ccc(C#N)cc1` (stereo not shown) [Example 1, 4-{5-Acetyl-6-methyl-2-thioxo-1-[3-(trifluoromethyl)phenyl]-1,2,3,4-tetrahydro-4-pyrimidinyl}benzonitrile] came in with an IC50 of 13 nM. On the same count and under the same terms, as for `CCOC(=O)C1=C(C)N(c2cccc(C(F)(F)F)c2)C(=S)NC1c1ccc(C#N)cc1` (stereo not shown) [Example 3, Ethyl 4-(4-cyanophenyl)-6-methyl-2-thioxo-1-[3-(trifluoromethyl)phenyl]-1,2,3,4-tetrahydro-5-pyrimidinecarboxylate], the figure is 9 nM. For the compound `CC1=C(C(N)=O)C(c2ccc(C#N)cc2)NC(=S)N1c1cccc(C(F)(F)F)c1` (stereo not shown) [Example 4, 4-(4-Cyanophenyl)-6-methyl-2-thioxo-1-[3-(trifluoromethyl)phenyl]-1,2,3,4-tetrahydro-5-pyrimidinecarboxamide], it took 23 nM to reach half-maximal inhibition (IC50). Same read-out and setting: as for `CC1=C(C(=O)N(C)C)C(c2ccc(C#N)cc2)NC(=S)N1c1cccc(C(F)(F)F)c1` (stereo not shown) [Example 6, 4-(4-Cyanophenyl)-N,N,6-trimethyl-2-thioxo-1-[3-(trifluoromethyl)phenyl]-1,2,3,4-tetrahydro-5-pyrimidinecarboxamide], the figure is 70 nM; as for `CCOC(=O)C1=C(C)N(c2cccc(C(F)(F)F)c2)C(SC)=NC1c1ccc(C#N)cc1` (stereo not shown) [Example 7], 10 nM. For the compound `CCOC(=O)C1=C(C)N(c2cccc(C(F)(F)F)c2)C(SCC)=NC1c1ccc(C#N)cc1` (stereo not shown) [Example 9], the half-maximal inhibitory concentration (IC50) worked out at 40 nM.

`CCOC(=O)C1=C(C)N(c2cccc(C(F)(F)F)c2)C(SCc2ccncc2)=NC1c1ccc(C#N)cc1` (stereo not shown) [Example 12, Ethyl 4-(4-cyanophenyl)-6-methyl-2-[(4-pyridinylmethyl)sulfanyl]-1-[3-(trifluoromethyl)phenyl]-1,4-dihydro-5-pyrimidinecarboxylate] returned an IC50 of 100 nM. On the same count and under the same terms, as for `CCOC(=O)C1=C(C)N(c2cccc(C(F)(F)F)c2)C(SCCN(CC)CC)=NC1c1ccc(C#N)cc1` (stereo not shown) [Example 14, Ethyl 4-(4-cyanophenyl)-2-{[2-(diethylamino)ethyl]sulfanyl}-6-methyl-1-[3-(trifluoromethyl)phenyl]-1,4-dihydro-5-pyrimidinecarboxylate], the figure is 10 nM; as for `CCOC(=O)C1=C(C)N(c2cccc(C(F)(F)F)c2)C(SCc2ncc[nH]2)=NC1c1ccc(C#N)cc1` (stereo not shown) [Example 15, Ethyl 4-(4-cyanophenyl)-2-[(1H-imidazol-2-ylmethyl)sulfanyl]-6-methyl-1-[3-(trifluoromethyl)phenyl]-1,4-dihydro-5-pyrimidinecarboxylate], 5 nM.

With `CC1=C(C(=O)O)C(c2ccc(C#N)cc2)NC(=S)N1c1cccc(C(F)(F)F)c1` (stereo not shown) [Example 19, 4-(4-Cyanophenyl)-6-methyl-2-thioxo-1-[3-(trifluoromethyl)phenyl]-1,2,3,4-tetrahydropyrimidine-5-carboxylic acid], the IC50 worked out at 30 nM. `CCOC(=O)C1=C(C)N(c2cccc(C(F)(F)F)c2)C(=S)N(C(=O)C2CCC2)C1c1ccc(C#N)cc1` (stereo not shown) [Example 29] returned an IC50 of 10 nM. Same read-out and setting: as for `CCOC(=O)C1=C(C)N(c2cccc(C(F)(F)F)c2)C(SC)=NC1c1ccc(C#N)cc1C` (stereo not shown) [Example 31, Ethyl 4-(4-cyano-2-methylphenyl)-6-methyl-2-(methylsulfanyl)-1-[3-(trifluoromethyl)phenyl]-1,4-dihydro-5-pyrimidinecarboxylate], the figure is 80 nM; as for `CCOC(=O)C1=C(C)N(c2cccc(Cl)c2)C(SCCCOC(N)=O)=NC1c1ccc(C#N)cc1` (stereo not shown) [Example 33], 20 nM. Compound `CCN(CC)CCOC(=O)C1=C(C)N(c2cccc(C(F)(F)F)c2)C(SC)=NC1c1ccc(C#N)cc1` (stereo not shown) [Example 58, 2-(Diethylamino)ethyl 4-(4-cyanophenyl)-6-methyl-2-(methylsulfanyl)-1-[3-(trifluoromethyl)phenyl]-1,4-dihydro-5-pyrimidinecarboxylate] registered an IC50 of 12 nM.

The subject of the next experiment is human polymorphonuclear cells (PMNs). As to the kind of experiment: In vitro PMN elastolysis assay (3H-elastin). The format is cell-based. The following applies: at 1.2 μM; n=3 different donors at 3.6×10^5 cells per well. Here is the method: In Vitro PMN Elastolysis Assay
This assay is used to determine the elastolytic potential of human polymorphonuclear cells (PMNs) and assess the proportion of degradation due to neutrophil elastase [cf. Z. W. She et al., Am. J. Respir. Cell. Mol. Biol. 9, 386-392 (1993)].
Tritiated elastin, in suspension, is coated on to a 96 well plate at 10 μg per well. Test and reference [ZD-0892 (J. Med. Chem. 40, 1876-1885, 3173-3181 (1997), WO 95/21855) and α1 protease inhibitor (α1PI)] compounds are added to the wells at the appropriate concentrations. Human PMNs are separated from peripheral venous blood of healthy donors and resuspended in culture media. The neutrophils are added to the coated wells at concentrations ranging between 1×10^6 to 1×10^5 cells per well. Porcine pancreatic elastase (1.3 μM) is used as a positive control for the assay, and α1PI (1.2 μM) is used as the positive inhibitor of neutrophil elastase. The cellular control is PMNs without compound at each appropriate cell density. The cells plus compounds are incubated in a humidified incubator at 37° C. for 4 hours. The plates are centrifuged to allow the harvest of cell supernatant only. […] The plates are dried until no liquid is visible in the wells and read in a beta counter for 3 minutes per well. […]
The compounds of this invention are evaluated for their inhibitory activity in this HNE-dependent model of neutrophil elastolysis.
Consider “α1PI: α1 protease inhibitor, used as the positive inhibitor of neutrophil elastase”, for which the “inhibition of elastolysis (mean±s.e.m.)” value worked out at 83.46±3.97%.

Staying with this experiment, now noted: n=2 different donors at 3.6×10^5 cells per well; read-out: IC50 (mean±s.e.m.).
`COc1ccc(C(=O)N[C@H](C(=O)N2CCC[C@H]2C(=O)N[C@H](C(=O)C(F)(F)F)C(C)C)C(C)C)cc1` [ZD-0892]: the IC50 came to 45.5 ± 7.75 nM.
